In ChEMBL document CHEMBL1201862, “PubChem BioAssay data set” (2004):
Structures can show the parent of a compound that is named as a salt.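 Grown in 96-well plates, cells were treated for 48 hours with each compound at five concentrations. Insufficient inhibition: endpoint recorded as highest concentration tested. GI50: concentration for 50% inhibition of growth.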 Activity calls are given as the source filed them. Rule as the data show it: active = GI50 up to about 1.1 µM and inactive = higher.

Key:
Assay in all cases: NCI tumour cell line growth inhibition, 48 h
OVCAR-4 = test system: OVCAR-4
COLO 205 = test system: COLO 205
CAKI-1 = test system: CAKI-1
EKVX = test system: EKVX
Malme-3M = test system: Malme-3M
MOLT-4 = test system: MOLT-4
LOX IMVI = test system: LOX IMVI
UACC-62 = test system: UACC-62
UO-31 = test system: UO-31
NCI-H23 = test system: NCI-H23
U-251 = test system: U-251
SK-OV-3 = test system: SK-OV-3
SW-620 = test system: SW-620
SF-539 = test system: SF-539
T47D = test system: T47D
TK-10 = test system: TK-10
MCF7 = test system: MCF7
NCI/ADR-RES = test system: NCI/ADR-RES
HOP-92 = test system: HOP-92
SF-295 = test system: SF-295

Row | Structure (SMILES) | GI50 (OVCAR-4) | GI50 (COLO 205) | GI50 (CAKI-1) | GI50 (EKVX) | GI50 (Malme-3M) | GI50 (MOLT-4) | GI50 (LOX IMVI) | GI50 (UACC-62) | GI50 (UO-31) | GI50 (NCI-H23) | GI50 (U-251) | GI50 (SK-OV-3) | GI50 (SW-620) | GI50 (SF-539) | GI50 (T47D) | GI50 (TK-10) | GI50 (MCF7) | GI50 (NCI/ADR-RES) | GI50 (HOP-92) | GI50 (SF-295)
1 | COc1cc2c(c(O)c1OC)C(=O)[C@@H]1CCC(=O)N1C2 | > 100 µM (inactive) | > 100 µM (inactive) | > 100 µM (inactive) | > 100 µM (inactive) | > 100 µM (inactive) | > 100 µM (inactive) | > 100 µM (inactive) | > 100 µM (inactive) | > 100 µM (inactive) | > 100 µM (inactive) | > 100 µM (inactive) | > 100 µM (inactive) | > 100 µM (inactive) | > 100 µM (inactive) | > 100 µM (inactive) | > 100 µM (inactive) | > 100 µM (inactive) | > 100 µM (inactive) | 71 µM (inactive) | > 100 µM (inactive)
2 | O=C1COc2ccc([N+](=O)[O-])cc2C(=O)C1 | > 10 µM (inactive) | > 10 µM (inactive) | > 10 µM (inactive) | > 10 µM (inactive) | > 10 µM (inactive) | > 10 µM (inactive) | > 10 µM (inactive) | > 10 µM (inactive) | > 10 µM (inactive) | > 10 µM (inactive) | > 10 µM (inactive) | > 10 µM (inactive) | > 10 µM (inactive) | > 10 µM (inactive) | > 10 µM (inactive) | > 10 µM (inactive) | > 10 µM (inactive) | > 10 µM (inactive) | 0.001 µM (active) | > 10 µM (inactive)
3 | COc1ccc(OC)c(C2Cc3cnc4nc(N)nc(N)c4c3C2)c1 (stereo not given) | 20.8 µM (inactive) | 19.5 µM (inactive) | 76.9 µM (inactive) | 25.6 µM (inactive) | 20.8 µM (inactive) | 24.5 µM (inactive) | 19.8 µM (inactive) | 18.6 µM (inactive) | 71.9 µM (inactive) | 32.2 µM (inactive) | 20.7 µM (inactive) | 31.8 µM (inactive) | 33.2 µM (inactive) | 13.7 µM (inactive) | 25 µM (inactive) | 26.2 µM (inactive) | 29.2 µM (inactive) | > 100 µM (inactive) | 24.3 µM (inactive) | 28.6 µM (inactive)
4 | COc1ccc2c(c1)CC1(O)COc3cc(OC)ccc3C1O2 (stereo not given) | 63.7 µM (inactive) | > 100 µM (inactive) | > 100 µM (inactive) | > 100 µM (inactive) | > 100 µM (inactive) | 48.4 µM (inactive) | > 100 µM (inactive) | > 100 µM (inactive) | > 100 µM (inactive) | > 100 µM (inactive) | 91.6 µM (inactive) | > 100 µM (inactive) | 95.1 µM (inactive) | > 100 µM (inactive) | 85.7 µM (inactive) | > 100 µM (inactive) | > 100 µM (inactive) | 68.9 µM (inactive) | > 100 µM (inactive) | > 100 µM (inactive)
5 | CS(=O)(=O)Nc1ccc(NCc2c[nH]c3ccc4ncccc4c23)cc1 | 25.9 µM (inactive) | 18.6 µM (inactive) | 19.6 µM (inactive) | 40.4 µM (inactive) | 23.7 µM (inactive) | 13.6 µM (inactive) | 26.4 µM (inactive) | 15 µM (inactive) | 33.3 µM (inactive) | 14.1 µM (inactive) | 23.6 µM (inactive) | 50.8 µM (inactive) | 32.3 µM (inactive) | 24.8 µM (inactive) | 20.6 µM (inactive) | 25.6 µM (inactive) | 23.1 µM (inactive) | > 100 µM (inactive) | 52.6 µM (inactive) | 24.2 µM (inactive)
6 | CC(=O)c1ccc(/N=N/c2ccc3nonc3c2N)cc1 | > 100 µM (inactive) | > 100 µM (inactive) | > 100 µM (inactive) | 9.98 µM (inactive) | > 100 µM (inactive) | > 100 µM (inactive) | > 100 µM (inactive) | > 100 µM (inactive) | > 100 µM (inactive) | 26.9 µM (inactive) | > 100 µM (inactive) | > 100 µM (inactive) | > 100 µM (inactive) | > 100 µM (inactive) | > 100 µM (inactive) | 53.1 µM (inactive) | > 100 µM (inactive) | > 100 µM (inactive) | > 100 µM (inactive) | 83.4 µM (inactive)
7 | Nc1ccc([As](=O)(O)O)cc1 [ARSANILIC ACID] | > 100 µM (inactive) | > 100 µM (inactive) | > 100 µM (inactive) | > 100 µM (inactive) | > 100 µM (inactive) | > 100 µM (inactive) | > 100 µM (inactive) | > 100 µM (inactive) | > 100 µM (inactive) | > 100 µM (inactive) | > 100 µM (inactive) | > 100 µM (inactive) | > 100 µM (inactive) | > 100 µM (inactive) | > 100 µM (inactive) | > 100 µM (inactive) | > 100 µM (inactive) | > 100 µM (inactive) | > 100 µM (inactive) | > 100 µM (inactive)
8 | NCCCCNCCCN [SPERMIDINE TRIHYDROCHLORIDE] | 16.7 µM (inactive) | > 100 µM (inactive) | 1.71 µM (inactive) | > 100 µM (inactive) | > 100 µM (inactive) | 51.3 µM (inactive) | > 100 µM (inactive) | > 100 µM (inactive) | > 100 µM (inactive) | > 100 µM (inactive) | > 100 µM (inactive) | > 100 µM (inactive) | > 100 µM (inactive) | > 100 µM (inactive) | > 100 µM (inactive) | > 100 µM (inactive) | 72.8 µM (inactive) | > 100 µM (inactive) | > 100 µM (inactive) | > 100 µM (inactive)
